# Tests used:
# MET = MET biochemical kinase assay; parameters: species or system human; concentration or dose not given beside the values
# In short: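 Lysate-derived MET, or chimeric receptors, is immobilised on plates through an antibody to the human MET cytoplasmic region. Compounds are added along with kinase buffer supplying ATP and divalent metal ions, and receptor autophosphorylation is quantified by anti-phosphotyrosine ELISA.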
# EGFR = biological target: T1, EGFR (Homo sapiens, UniProt P00533); assay: EGFR ELISA assay (in vitro kinase activity, EGFR captured from A431 cell lysate); assay type: biochemical; parameters: concentration or dose not given beside the values
# T1 construct: Add 7 ug A431 cell lysate per well (EGFR source); endogenous in cells; host or cells: A431
# In short: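 EGFR from A431 lysate was captured on plates coated with anti-EGFR antibody. Compounds were added 30 min before a 5 min phosphorylation with 3 µM ATP/5 mM MnCl2, which was stopped with 20 mM EDTA. Phosphotyrosine was detected with rabbit anti-phosphotyrosine, then a peroxidase-conjugated secondary and ABTS/H2O2, read at 410 nm.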
# T1 sequence (P00533 25-1210): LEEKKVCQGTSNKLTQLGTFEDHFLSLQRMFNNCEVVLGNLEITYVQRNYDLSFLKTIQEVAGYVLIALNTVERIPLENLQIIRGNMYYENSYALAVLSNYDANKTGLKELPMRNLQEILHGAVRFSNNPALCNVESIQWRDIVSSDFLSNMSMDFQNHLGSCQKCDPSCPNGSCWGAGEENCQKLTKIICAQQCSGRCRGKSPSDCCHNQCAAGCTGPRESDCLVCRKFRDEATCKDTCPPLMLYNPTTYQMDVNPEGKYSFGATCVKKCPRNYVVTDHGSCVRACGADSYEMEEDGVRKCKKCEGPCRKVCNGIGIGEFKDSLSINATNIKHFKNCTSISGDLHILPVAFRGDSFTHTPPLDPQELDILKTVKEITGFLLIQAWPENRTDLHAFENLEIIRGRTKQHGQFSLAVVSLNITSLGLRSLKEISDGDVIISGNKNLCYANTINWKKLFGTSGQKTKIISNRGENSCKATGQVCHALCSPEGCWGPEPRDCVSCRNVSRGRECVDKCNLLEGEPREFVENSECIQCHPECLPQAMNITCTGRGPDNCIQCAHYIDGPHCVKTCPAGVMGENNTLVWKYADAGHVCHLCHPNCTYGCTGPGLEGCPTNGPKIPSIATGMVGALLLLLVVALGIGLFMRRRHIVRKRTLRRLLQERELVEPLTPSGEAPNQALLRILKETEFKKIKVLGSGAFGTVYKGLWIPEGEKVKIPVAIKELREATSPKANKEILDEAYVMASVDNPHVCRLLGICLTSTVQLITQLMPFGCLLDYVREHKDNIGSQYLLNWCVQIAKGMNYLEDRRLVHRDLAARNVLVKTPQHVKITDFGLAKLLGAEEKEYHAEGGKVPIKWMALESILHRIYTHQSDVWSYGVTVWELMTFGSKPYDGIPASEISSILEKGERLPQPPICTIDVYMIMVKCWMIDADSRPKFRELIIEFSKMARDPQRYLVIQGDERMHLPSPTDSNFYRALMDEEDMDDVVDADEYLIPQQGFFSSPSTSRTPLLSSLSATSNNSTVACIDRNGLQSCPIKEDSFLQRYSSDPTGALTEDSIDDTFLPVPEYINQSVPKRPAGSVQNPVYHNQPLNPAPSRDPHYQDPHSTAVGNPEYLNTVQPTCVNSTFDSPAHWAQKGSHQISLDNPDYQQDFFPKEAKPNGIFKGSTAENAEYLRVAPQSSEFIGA
SMILES,Met Kinase % Inhibition (MET) [%],Biochem EGFR %Inhibition (EGFR) [%]
O=C1Nc2ccc(I)cc2C1=Cc1cc([N+](=O)[O-])ccc1O [10733/B10],65.1,11.8
COc1c([N+](=O)[O-])cc(C=C2C(=O)Nc3ccc(Br)c(C)c32)cc1C(C)(C)C [10733/C03],29.3,14.4
CNS(=O)(=O)c1ccc2c(c1)C(=Cc1ccc(O)c(C)c1O)C(=O)N2 [10718/D09],9.9,6.0
COc1c(C(C)(C)C)cc(C=C2C(=O)Nc3ccc(Br)c(C)c32)cc1C(C)(C)C [10733/C04],18.4,29.0
CC(C)(C)c1cc(C=C2C(=O)Nc3ccc(I)cc32)cc(I)c1OCc1ccccc1 [10733/B02],74.6,31.6
CNS(=O)(=O)c1ccc2c(c1)C(=Cc1cc([N+](=O)[O-])c(OC)c(C(C)(C)C)c1)C(=O)N2 [10733/D03],32.8,11.2
O=C1Nc2ccc(S(=O)(=O)Nc3ccc(C(F)(F)F)cc3)cc2C1=CC(c1cccs1)C(F)(F)F (centres unmarked) [10732/E02],33.3,0.8
CC(C)c1cc(C=C2C(=O)Nc3ccc(S(=O)(=O)N4CCOCC4)cc32)cc(C(C)C)c1Oc1ccccc1 [10732/F04],57.2,-0.1
COc1c(I)cc(C=C2C(=O)Nc3ccc(CCCl)cc32)cc1C(C)(C)C [10732/G11],63.0,-33.7
CNS(=O)(=O)c1ccc2c(c1)C(=Cc1ccc(Cl)c([N+](=O)[O-])c1)C(=O)N2 [10718/D08],2.3,3.0
CC(C)(C)c1cc(C=C2C(=O)Nc3ccc(CCCl)cc32)cc(Br)c1OCc1ccccc1 [10732/G08],44.7,-20.4
CC(C)(C)c1cc(C=C2C(=O)Nc3ccc(S(=O)(=O)Nc4ccc(C(F)(F)F)cc4)cc32)cc(Cl)c1OCc1ccccc1 [10732/E10],1.6,-3.3
CC(C)(C)c1cc(C=C2C(=O)Nc3ccc(S(=O)(=O)Nc4ccc(C(F)(F)F)cc4)cc32)cc(I)c1OCc1ccccc1 [10733/E02],60.5,-1.3
CNS(=O)(=O)c1ccc2c(c1)C(=Cc1ccco1)C(=O)N2 [10718/D10],55.3,12.3
CC(C)(C)c1cc(C=C2C(=O)Nc3c(Br)cc(Br)cc32)cc(I)c1OCc1ccccc1 [10733/A02],74.6,25.9
O=C1Nc2ccc(CCCl)cc2C1=CC(c1cccs1)C(F)(F)F (centres unmarked) [10732/G02],39.5,-0.7
CNS(=O)(=O)c1ccc2c(c1)C(=Cc1cc(I)c(OC)c(C(C)(C)C)c1)C(=O)N2 [10732/D11],48.6,-13.4
CNS(=O)(=O)c1ccc2c(c1)C(=Cc1cc(C(C)(C)C)c(OCc3ccccc3)c(C(C)(C)C)c1)C(=O)N2 [10733/D05],25.1,10.6
CC(C)(C)c1cc(C=C2C(=O)Nc3ccc(S(=O)(=O)Nc4ccc(C(F)(F)F)cc4)cc32)cc(Br)c1OCc1ccccc1 [10732/E08],29.4,-21.7
CNS(=O)(=O)c1ccc2c(c1)C(=Cc1cc(Br)cc(OC)c1O)C(=O)N2 [10733/D08],80.0,38.3
O=C1Nc2ccc(I)cc2C1=Cc1cc(Br)ccc1O [10733/B09],64.5,21.1
CNS(=O)(=O)c1ccc2c(c1)C(=Cc1c(C)[nH]c(C(=O)OC)c1C(=O)OC)C(=O)N2 [10718/D07],26.1,5.6
COc1c(C)cc(C=C2C(=O)Nc3ccc(I)cc32)cc1C [10733/B06],71.4,43.6
CC(C)c1cc(C=C2C(=O)Nc3ccc(CCCl)cc32)cc(C(C)C)c1Oc1ccccc1 [10732/G04],24.9,8.0
COc1cc(Br)cc(C=C2C(=O)Nc3ccc(I)cc32)c1O [10733/B08],65.5,32.5
Cc1cc(C=C2C(=O)Nc3ccc(I)cc32)cc(C)c1OCc1ccccc1 [10733/B07],73.5,32.7
CNS(=O)(=O)c1ccc2c(c1)C(=Cc1cc([N+](=O)[O-])ccc1O)C(=O)N2 [10733/D10],22.8,46.8
COc1c(C(C)C)cc(C=C2C(=O)Nc3ccc(S(=O)(=O)Nc4ccc(C(F)(F)F)cc4)cc32)cc1C(C)C [10732/E03],3.9,-1.6

SMILES,Met Kinase % Inhibition (MET) [%],Biochem EGFR %Inhibition (EGFR) [%]
COc1ccc(C=C2C(=O)Nc3ccc(S(=O)(=O)N4CCOCC4)cc32)cc1C(C)(C)C [10732/F05],58.9,-30.7
COc1c(C(C)(C)C)cc(C=C2C(=O)Nc3c(Br)cc(Br)cc32)cc1C(C)(C)C [10733/A04],24.0,32.8
CC(C)(C)c1cc(C=C2C(=O)Nc3ccc(S(=O)(=O)Nc4ccc(C(F)(F)F)cc4)cc32)ccc1OCc1ccccc1 [10732/E06],-2.1,-11.0
COc1cc(Br)cc(C=C2C(=O)Nc3c(Br)cc(Br)cc32)c1O [10733/A08],27.2,19.5
COc1c(Cl)cc(C=C2C(=O)Nc3ccc(S(=O)(=O)Nc4ccc(C(F)(F)F)cc4)cc32)cc1C(C)(C)C [10732/E09],18.1,-7.2
O=C1Nc2c(Br)cc(Br)cc2C1=Cc1cc([N+](=O)[O-])ccc1O [10733/A10],21.1,14.2
COc1c(Br)cc(C=C2C(=O)Nc3ccc(S(=O)(=O)Nc4ccc(C(F)(F)F)cc4)cc32)cc1C(C)(C)C [10732/E07],15.2,-8.5
COc1c(O)ccc(C=C2C(=O)Nc3c(Br)cc(Br)cc32)c1[N+](=O)[O-] [10733/A11],43.5,23.0
CNS(=O)(=O)c1ccc2c(c1)C(=Cc1cc(Br)ccc1O)C(=O)N2 [10733/D09],38.7,48.3
Cc1c(Br)ccc2c1C(=Cc1cc(Br)ccc1O)C(=O)N2 [10733/C09],16.3,46.0
COc1c(C(C)(C)C)cc(C=C2C(=O)Nc3ccc(I)cc32)cc1C(C)(C)C [10733/B04],56.3,28.5
O=C1Nc2c(Br)cc(Br)cc2C1=Cc1cc(Br)ccc1O [10733/A09],22.1,25.9
CNS(=O)(=O)c1ccc2c(c1)C(=Cc1cc(I)c(OCc3ccccc3)c(C(C)(C)C)c1)C(=O)N2 [10733/D02],63.4,12.5
Cc1cc(C=C2C(=O)Nc3c(Br)cc(Br)cc32)cc(C)c1OCc1ccccc1 [10733/A07],27.2,28.5
COc1c(O)ccc(C=C2C(=O)Nc3ccc(Br)c(C)c32)c1[N+](=O)[O-] [10733/C11],35.1,15.8
COc1c(C(C)C)cc(C=C2C(=O)Nc3ccc(CCCl)cc32)cc1C(C)C [10732/G03],38.1,-20.0
CC(C)(C)c1cc(C=C2C(=O)Nc3ccc(S(=O)(=O)N4CCOCC4)cc32)cc(Cl)c1OCc1ccccc1 [10732/F10],65.1,0.8
COc1c(Br)cc(C=C2C(=O)Nc3ccc(CCCl)cc32)cc1C(C)(C)C [10732/G07],23.9,-21.9
COc1c([N+](=O)[O-])cc(C=C2C(=O)Nc3c(Br)cc(Br)cc32)cc1C(C)(C)C [10733/A03],24.9,33.6
CC(C)(C)c1cc(C=C2C(=O)Nc3ccc(CCCl)cc32)ccc1OCc1ccccc1 [10732/G06],16.2,-12.1
CNS(=O)(=O)c1ccc2c(c1)C(=Cc1cc(C(C)(C)C)c(OC)c(C(C)(C)C)c1)C(=O)N2 [10733/D04],37.7,19.9
COc1c(Cl)cc(C=C2C(=O)Nc3ccc(CCCl)cc32)cc1C(C)(C)C [10732/G09],33.9,-34.8
COc1cc(Br)c(O)c(C=C2C(=O)Nc3ccc(S(=O)(=O)Nc4ccc(C(F)(F)F)cc4)cc32)c1 [10718/E03],95.3,50.4
CNS(=O)(=O)c1ccc2c(c1)C(=Cc1cc(C)c(OC)c(C)c1)C(=O)N2 [10733/D06],-19.4,30.8
CCOC(=O)c1c(C)[nH]c(C=C2C(=O)Nc3ccc(S(=O)(=O)Nc4ccc(C(F)(F)F)cc4)cc32)c1C [10718/E02],46.3,1.0
Cc1c(Br)ccc2c1C(=Cc1cc(C(C)(C)C)c(OCc3ccccc3)c(C(C)(C)C)c1)C(=O)N2 [10733/C05],23.2,17.2
COc1cccc(O)c1C=C1C(=O)Nc2c(Br)cc(Br)cc21 [10717/A10],71.6,8.1

# Source: EP1247803A2, “Indolinone compounds suitable for modulation of protein kinases” (Sugen, Inc., priority 1996, dated 1998)
